{"source": "the supplement of paper PMC10307832", "test_in_all_cases": "relative viability (nuclei count vs DMSO), 5 days (fraction); higher = more cells survive", "key": {"[1]": {"test_system": "NCI-H1395", "in_short": "(§1)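 Nuclei were stained with Hoechst during a one-step fixation (final 0.05% Triton X-100, 1% formaldehyde, 1 ug/ml Hoechst) carried out 5 days after dosing, then counted on 4× images. The cells, lung cancer lines in 1536-well plates, had been dosed by pin tool the day after seeding with one drug alone or a fixed anchor-drug dose plus five library-drug doses (not always all listed) in √10 steps. Relative viability is the nuclei count in treated wells divided by that in vehicle wells, and each value is the median of duplicate plates.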"}, "[2]": {"test_system": "NCI-H1755", "in_short": "as §1"}, "[3]": {"test_system": "NCI-H1437", "in_short": "as §1"}, "[4]": {"test_system": "NCI-H1915", "in_short": "as §1"}, "[5]": {"test_system": "NCI-H1975", "in_short": "as §1"}, "[6]": {"test_system": "NCI-H727", "in_short": "as §1"}, "[7]": {"test_system": "NCI-H2228", "in_short": "as §1"}, "[8]": {"test_system": "EMC-BAC-2", "in_short": "as §1"}, "[9]": {"test_system": "A-427", "in_short": "as §1"}, "[10]": {"test_system": "CAL-12T", "in_short": "as §1"}, "[11]": {"test_system": "NCI-H23", "in_short": "as §1"}, "[12]": {"test_system": "COR-L 105", "in_short": "as §1"}, "[13]": {"test_system": "HCC-366", "in_short": "as §1"}, "[14]": {"test_system": "NCI-H2009", "in_short": "as §1"}, "[15]": {"test_system": "LCLC-103H", "in_short": "as §1"}, "[16]": {"test_system": "NCI-H460", "in_short": "as §1"}, "[17]": {"test_system": "SW 1573", "in_short": "as §1"}, "[18]": {"test_system": "SK-LU-1", "in_short": "as §1"}, "[19]": {"test_system": "HARA", "in_short": "as §1"}, "[20]": {"test_system": "NCI-H1355", "in_short": "as §1"}, "[21]": {"test_system": "HCC-827", "in_short": "as §1"}, "[22]": {"test_system": "NCI-H522", "in_short": "as §1"}, "[23]": {"test_system": "HOP-62", "in_short": "as §1"}}}
{"smiles": "C[C@@H]1CN(CC(=O)Nc2ccc3c(c2)Cc2cccc(-c4cc(=O)cc(N5CCOCC5)o4)c2S3)C[C@H](C)O1", "note": "+ Cc1cc(Nc2cc(N3CCN(C)CC3)nc(Sc3ccc(NC(=O)C4CC4)cc3)n2)n[nH]1 [Tozasertib] (partner 0.1 µM)", "values": [{"measurement": "relative viability", "setting": "[1]; first compound 0.04 µM", "result": 0.696}, {"measurement": "relative viability", "setting": "[1]; first compound 0.1265 µM", "result": 0.729}, {"measurement": "relative viability", "setting": "[1]; first compound 0.4 µM", "result": 0.665}, {"measurement": "relative viability", "setting": "[1]; first compound 4 µM", "result": 0.721}, {"measurement": "relative viability", "setting": "[2]; first compound 0.04 µM", "result": 0.603}, {"measurement": "relative viability", "setting": "[2]; first compound 0.1265 µM", "result": 0.582}, {"measurement": "relative viability", "setting": "[2]; first compound 0.4 µM", "result": 0.595}, {"measurement": "relative viability", "setting": "[2]; first compound 4 µM", "result": 0.466}, {"measurement": "relative viability", "setting": "[3]; first compound 0.04 µM", "result": 0.379}, {"measurement": "relative viability", "setting": "[3]; first compound 0.1265 µM", "result": 0.354}, {"measurement": "relative viability", "setting": "[3]; first compound 0.4 µM", "result": 0.395}, {"measurement": "relative viability", "setting": "[3]; first compound 4 µM", "result": 0.365}, {"measurement": "relative viability", "setting": "[4]; first compound 0.04 µM", "result": 0.364}, {"measurement": "relative viability", "setting": "[4]; first compound 0.1265 µM", "result": 0.422}, {"measurement": "relative viability", "setting": "[4]; first compound 0.4 µM", "result": 0.399}, {"measurement": "relative viability", "setting": "[4]; first compound 4 µM", "result": 0.314}, {"measurement": "relative viability", "setting": "[5]; first compound 0.04 µM", "result": 0.781}, {"measurement": "relative viability", "setting": "[5]; first compound 0.1265 µM", "result": 0.675}, {"measurement": "relative viability", "setting": "[5]; first compound 0.4 µM", "result": 0.611}, {"measurement": "relative viability", "setting": "[5]; first compound 4 µM", "result": 0.193}, {"measurement": "relative viability", "setting": "[6]; first compound 0.04 µM", "result": 0.797}, {"measurement": "relative viability", "setting": "[6]; first compound 0.1265 µM", "result": 0.736}, {"measurement": "relative viability", "setting": "[6]; first compound 0.4 µM", "result": 0.572}, {"measurement": "relative viability", "setting": "[6]; first compound 4 µM", "result": 0.57}, {"measurement": "relative viability", "setting": "[7]; first compound 0.04 µM", "result": 0.235}, {"measurement": "relative viability", "setting": "[7]; first compound 0.1265 µM", "result": 0.214}, {"measurement": "relative viability", "setting": "[7]; first compound 0.4 µM", "result": 0.245}, {"measurement": "relative viability", "setting": "[7]; first compound 4 µM", "result": 0.162}, {"measurement": "relative viability", "setting": "[8]; first compound 0.04 µM", "result": 0.257}, {"measurement": "relative viability", "setting": "[8]; first compound 0.1265 µM", "result": 0.29}, {"measurement": "relative viability", "setting": "[8]; first compound 0.4 µM", "result": 0.294}, {"measurement": "relative viability", "setting": "[8]; first compound 4 µM", "result": 0.264}, {"measurement": "relative viability", "setting": "[9]; first compound 0.04 µM", "result": 0.176}, {"measurement": "relative viability", "setting": "[9]; first compound 0.1265 µM", "result": 0.214}, {"measurement": "relative viability", "setting": "[9]; first compound 0.4 µM", "result": 0.214}, {"measurement": "relative viability", "setting": "[9]; first compound 4 µM", "result": 0.205}, {"measurement": "relative viability", "setting": "[10]; first compound 0.04 µM", "result": 0.306}, {"measurement": "relative viability", "setting": "[10]; first compound 0.1265 µM", "result": 0.366}, {"measurement": "relative viability", "setting": "[10]; first compound 0.4 µM", "result": 0.296}, {"measurement": "relative viability", "setting": "[10]; first compound 4 µM", "result": 0.217}, {"measurement": "relative viability", "setting": "[11]; first compound 0.04 µM", "result": 0.362}, {"measurement": "relative viability", "setting": "[11]; first compound 0.1265 µM", "result": 0.308}, {"measurement": "relative viability", "setting": "[11]; first compound 0.4 µM", "result": 0.348}, {"measurement": "relative viability", "setting": "[11]; first compound 4 µM", "result": 0.198}, {"measurement": "relative viability", "setting": "[12]; first compound 0.04 µM", "result": 0.321}, {"measurement": "relative viability", "setting": "[12]; first compound 0.1265 µM", "result": 0.332}, {"measurement": "relative viability", "setting": "[12]; first compound 0.4 µM", "result": 0.352}, {"measurement": "relative viability", "setting": "[12]; first compound 4 µM", "result": 0.296}, {"measurement": "relative viability", "setting": "[13]; first compound 0.04 µM", "result": 0.165}, {"measurement": "relative viability", "setting": "[13]; first compound 0.1265 µM", "result": 0.132}, {"measurement": "relative viability", "setting": "[13]; first compound 0.4 µM", "result": 0.0609}, {"measurement": "relative viability", "setting": "[13]; first compound 4 µM", "result": 0.0509}, {"measurement": "relative viability", "setting": "[14]; first compound 0.04 µM", "result": 0.856}, {"measurement": "relative viability", "setting": "[14]; first compound 0.1265 µM", "result": 0.682}, {"measurement": "relative viability", "setting": "[14]; first compound 0.4 µM", "result": 0.593}, {"measurement": "relative viability", "setting": "[14]; first compound 4 µM", "result": 0.503}, {"measurement": "relative viability", "setting": "[15]; first compound 0.04 µM", "result": 0.532}, {"measurement": "relative viability", "setting": "[15]; first compound 0.1265 µM", "result": 0.498}, {"measurement": "relative viability", "setting": "[15]; first compound 0.4 µM", "result": 0.544}, {"measurement": "relative viability", "setting": "[15]; first compound 4 µM", "result": 0.417}, {"measurement": "relative viability", "setting": "[16]; first compound 0.04 µM", "result": 0.393}, {"measurement": "relative viability", "setting": "[16]; first compound 0.1265 µM", "result": 0.397}, {"measurement": "relative viability", "setting": "[16]; first compound 0.4 µM", "result": 0.485}, {"measurement": "relative viability", "setting": "[16]; first compound 4 µM", "result": 0.0949}, {"measurement": "relative viability", "setting": "[17]; first compound 0.04 µM", "result": 0.224}, {"measurement": "relative viability", "setting": "[17]; first compound 0.1265 µM", "result": 0.18}, {"measurement": "relative viability", "setting": "[17]; first compound 0.4 µM", "result": 0.23}, {"measurement": "relative viability", "setting": "[17]; first compound 4 µM", "result": 0.231}, {"measurement": "relative viability", "setting": "[18]; first compound 0.04 µM", "result": 0.334}, {"measurement": "relative viability", "setting": "[18]; first compound 0.1265 µM", "result": 0.326}, {"measurement": "relative viability", "setting": "[18]; first compound 0.4 µM", "result": 0.323}, {"measurement": "relative viability", "setting": "[18]; first compound 4 µM", "result": 0.217}, {"measurement": "relative viability", "setting": "[19]; first compound 0.1265 µM", "result": 0.105}, {"measurement": "relative viability", "setting": "[19]; first compound 0.4 µM", "result": 0.0954}, {"measurement": "relative viability", "setting": "[19]; first compound 4 µM", "result": 0.104}, {"measurement": "relative viability", "setting": "[20]; first compound 0.04 µM", "result": 0.361}, {"measurement": "relative viability", "setting": "[20]; first compound 0.1265 µM", "result": 0.514}, {"measurement": "relative viability", "setting": "[20]; first compound 0.4 µM", "result": 0.461}, {"measurement": "relative viability", "setting": "[20]; first compound 4 µM", "result": 0.42}, {"measurement": "relative viability", "setting": "[21]; first compound 0.04 µM", "result": 0.451}, {"measurement": "relative viability", "setting": "[21]; first compound 0.1265 µM", "result": 0.396}, {"measurement": "relative viability", "setting": "[21]; first compound 0.4 µM", "result": 0.41}, {"measurement": "relative viability", "setting": "[21]; first compound 4 µM", "result": 0.427}, {"measurement": "relative viability", "setting": "[22]; first compound 0.04 µM", "result": 0.542}, {"measurement": "relative viability", "setting": "[22]; first compound 0.1265 µM", "result": 0.56}, {"measurement": "relative viability", "setting": "[22]; first compound 0.4 µM", "result": 0.583}, {"measurement": "relative viability", "setting": "[22]; first compound 4 µM", "result": 0.557}, {"measurement": "relative viability", "setting": "[23]; first compound 0.04 µM", "result": 0.378}, {"measurement": "relative viability", "setting": "[23]; first compound 0.1265 µM", "result": 0.365}, {"measurement": "relative viability", "setting": "[23]; first compound 0.4 µM", "result": 0.35}, {"measurement": "relative viability", "setting": "[23]; first compound 4 µM", "result": 0.346}]}
